In PMC6901909, “Synergy Pattern of Short Cationic Antimicrobial Peptides Against Multidrug-Resistant Pseudomonas aeruginosa” (Frontiers in Microbiology, 2019):
Values after ≈ are worked out from the molar mass of the structure shown. Like-named read-outs stand apart in the source and are kept apart here. Peptide text beside a SMILES is read from it.

Columns and labels:
MDR P. aeruginosa PA 923 = experiment: microbe, parasite or virus in culture; format: cell-based, Pseudomonas aeruginosa; conditions: Pseudomonas aeruginosa; conventional antibiotics; microdilution, Mueller-Hinton broth, 2–5 10^5 CFU/ml, 18 h at 37°C, read visually; at least three repeats (n = 3)
In short: (§1)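 Clinical and municipal waste-water MDR isolates were tested by broth microdilution in Mueller-Hinton broth with twofold serial dilutions at 2–5 10^5 CFU/ml. Plates were incubated 18 h at 37°C in polypropylene plates. MIC was read visually.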

MDR P. aeruginosa PA 915 = experiment: microbe, parasite or virus in culture; format: cell-based, Pseudomonas aeruginosa; conditions: Pseudomonas aeruginosa; conventional antibiotics; microdilution, Mueller-Hinton broth, 2–5 10^5 CFU/ml, 18 h at 37°C, read visually; at least three repeats (n = 3)
In short: as §1

MDR P. aeruginosa PA253 = experiment: microbe, parasite or virus in culture; format: cell-based, Pseudomonas aeruginosa; conditions: for MIC: Pseudomonas aeruginosa, conventional antibiotics, 2–5 10^5 CFU/ml, at least three repeats (n = 3)
In short: as §1

P. aeruginosa PA01-wt = experiment: microbe, parasite or virus in culture; format: cell-based, Pseudomonas aeruginosa; conditions: for MIC: Pseudomonas aeruginosa, PA01WT, conventional antibiotics, 2–5 10^5 CFU/ml, at least three repeats (n = 3)
MDR P. aeruginosa PA 927 = experiment: microbe, parasite or virus in culture; format: cell-based, Pseudomonas aeruginosa; conditions: Pseudomonas aeruginosa; conventional antibiotics; microdilution, Mueller-Hinton broth, 2–5 10^5 CFU/ml, 18 h at 37°C, read visually; at least three repeats (n = 3)
In short: as §1

MDR P. aeruginosa PA 919 = experiment: microbe, parasite or virus in culture; format: cell-based, Pseudomonas aeruginosa; conditions: for MIC: Pseudomonas aeruginosa, conventional antibiotics, 2–5 10^5 CFU/ml, at least three repeats (n = 3)
In short: as §1

MDR P. aeruginosa PA 910 = experiment: microbe, parasite or virus in culture; format: cell-based, Pseudomonas aeruginosa; conditions: for MIC: Pseudomonas aeruginosa; for MIC against PA910 in μM (peptides, Table 4): peptide alone
In short: as §1

[1] = system: MDR isolate of P. aeruginosa (PA 910); conditions: checkerboard, MHb, for the Indopt versions 1/8 MHb, 2–5 × 10^5 CFU/ml, 37°C, 18 h, visual, determined once (n = 1); for FIC, combination with AMI: peptide + amikacin; for FIC, combination with CEF: peptide + cefepime; for FIC, combination with CET: peptide + ceftazidime; for FIC, combination with CIP: peptide + ciprofloxacin; for FIC, combination with ERY: peptide + erythromycin; for FIC, combination with GEN: peptide + gentamycin; for FIC, combination with IMI: peptide + imipenem; for FIC, combination with KAN: peptide + kanamycin; for FIC, combination with MER: peptide + meropenem; for FIC, combination with PIP: peptide + piperacillin; for FIC, combination with PMB: peptide + polymyxin B; for FIC, combination with TET: peptide + tetracycline; for FIC, combination with TOB: peptide + tobramycin
Experimental: The checkerboard assay was used to determine the fractional inhibitory concentrations (FICs), following the protocol described in Koneman’s Color Atlas and Textbook of Diagnostic Microbiology ([Winn et al., 2006]). Briefly, combinations of peptides and antibiotics were prepared in 96-well plates (polypropylene, Corning) in a twofold dilution series. After the addition of a log-phase bacterial inoculum of 2–5 × 10^5 CFU/ml, plates were incubated at 37°C for 18 h. The FICs were determined by visual inspection and the effects of the combinations were determined using the FICs. The FIC was computed by adding two partial FIC values, FICA—the MIC of drug A, tested in combination with drug B divided by the MIC of drug A, tested alone and FICB—the MIC of drug B, tested in combination with drug A divided by the MIC of drug B, tested alone [FIC = FICA + FICB = (MICAB/MICA) + (MICBA/MICB), where MICA and MICB are the MICs of drugs A and B alone, respectively, and MICAB and MICBA are the MIC concentrations of the drugs in combination]. Here we use the European Committee for Antimicrobial Susceptibility Testing (EUCAST) definition, which is very similar to the definition provided by [Odds, 2003], except Odds define additive effects when FIC values are between 0.5 and 1 ([European Committee for Antimicrobial Susceptibility Testing [EUCAST] of the European Society of Clinical Microbiology and Infectious Diseases [ESCMID], 2000]; [Odds, 2003]). The combination of peptide (drug A) and antibiotics (drug B) was defined as synergistic if the FIC was ≤ 0.5, indifferent if the FIC was > 0.5 but ≤ 4.0 and antagonistic if the FIC was > 4.0.

[2] = microdilution, Mueller-Hinton broth, 18 h at 37°C, read visually
[3] = 18 h, antibiotic alone, as listed in the FIC table, read-out: MIC against PA910 in μM (antibiotics, head of Table 4)
[4] = conventional antibiotics, microdilution, Mueller-Hinton broth, 2–5 10^5 CFU/ml, 18 h at 37°C, read visually, at least three repeats (n = 3), read-out: MIC PA 910
[5] = four classes defined from the MIC values, 1 strong to 4 weak
[6] = short AMPs, microdilution, Mueller-Hinton broth, 18 h at 37°C, read visually, triplicate (n = 3)

Row | SMILES | MIC (MDR P. aeruginosa PA 923) | MIC (MDR P. aeruginosa PA 915) | MIC (MDR P. aeruginosa PA253; [2]) | MIC (P. aeruginosa PA01-wt; [2]) | MIC (MDR P. aeruginosa PA 927) | MIC (MDR P. aeruginosa PA 919; [2]) | MIC (MDR P. aeruginosa PA 910; [3]) | MIC (MDR P. aeruginosa PA 910; [4]) | FIC, combination with AMI [1] | FIC, combination with CEF [1] | FIC, combination with CET [1] | FIC, combination with CIP [1] | FIC, combination with ERY [1] | FIC, combination with GEN [1] | FIC, combination with IMI [1] | FIC, combination with KAN [1] | FIC, combination with MER [1] | FIC, combination with PIP [1] | FIC, combination with PMB [1] | FIC, combination with TET [1] | other results
1 | C[C@@H](O)[C@H]1C(=O)N2C(C(=O)O)=C(SCCN=CN)C[C@H]12 [Imipenem] | > 128 µM | > 128 µM | > 128 µM | 2 µM (≈ 0.599 µg/mL) | > 128 µM | 16 µM (≈ 4.79 µg/mL) | > 128 µM | > 128 µM |  |  |  |  |  |  |  |  |  |  |  |  | 
2 | CC[C@H](C)[C@H](NC(=O)[C@H](CCCCN)NC(=O)[C@H](CCC(=O)O)NC(=O)[C@H](CCCCN)NC(=O)[C@H](CO)NC(=O)[C@H](CCCCN)NC(=O)[C@H](CCCNC(=N)N)NC(=O)[C@H](Cc1ccccc1)NC(=O)[C@H](Cc1ccccc1)NC(=O)[C@H](CC(=O)O)NC(=O)CNC(=O)[C@H](CC(C)C)NC(=O)[C@@H](N)CC(C)C)C(=O)NCC(=O)N[C@@H](CCCCN)C(=O)N[C@@H](CCC(=O)O)C(=O)N[C@@H](Cc1ccccc1)C(=O)N[C@@H](CCCCN)C(=O)N[C@@H](CCCNC(=N)N)C(=O)N[C@H](C(=O)N[C@H](C(=O)N[C@@H](CCC(N)=O)C(=O)N[C@@H](CCCNC(=N)N)C(=O)N[C@H](C(=O)N[C@@H](CCCCN)C(=O)N[C@@H](CC(=O)O)C(=O)N[C@@H](Cc1ccccc1)C(=O)N[C@@H](CC(C)C)C(=O)N[C@@H](CCCNC(=N)N)C(=O)N[C@@H](CC(N)=O)C(=O)N[C@@H](CC(C)C)C(=O)N[C@H](C(=O)N1CCC[C@H]1C(=O)N[C@@H](CCCNC(=N)N)C(=O)N[C@H](C(=O)N[C@@H](CCC(=O)O)C(=O)N[C@@H](CO)C(=O)O)[C@@H](C)O)C(C)C)[C@@H](C)CC)C(C)C)[C@@H](C)CC [LL37] |  |  |  |  |  |  |  |  | 2 | 2 | 0.75 | 0.51 | 0.51 | 2 | 1 | 1 | 0.51 | 2 | 0.63 | 0.5 | FIC, combination with TOB [1]: 2; activity class by MIC (number in brackets), PA253 (MDR P. aeruginosa PA253; [5]): 4 (the least active class includes peptides with MIC values larger than 32 μM); MIC against MDR isolates of PA, PA253 (MDR P. aeruginosa PA253; [6]): 64 µM; activity class by MIC (number in brackets), PA01 wt (P. aeruginosa PA01-wt; [5]): 3 (class 3 includes peptides with MIC values between 16 and 32 μM); MIC against PA01 wt (P. aeruginosa PA01-wt; [6]): 16 µM (≈ 71.9 µg/mL); activity class by MIC (number in brackets), PA919 (MDR P. aeruginosa PA 919; [5]): 3 (class 3 includes peptides with MIC values between 16 and 32 μM); MIC against MDR isolates of PA, PA919 (MDR P. aeruginosa PA 919; [6]): 16 µM; activity class by MIC (number in brackets), PA910 (MDR P. aeruginosa PA 910; [5]): 4 (the least active class includes peptides with MIC values larger than 32 μM); MIC against PA910 in μM (peptides, Table 4) (MDR P. aeruginosa PA 910; as listed in the FIC table): 64 µM; MIC against MDR isolates of PA, PA910 (MDR P. aeruginosa PA 910; [6]): 64 µM
3 | C[C@@H](O)[C@H]1C(=O)N2C(C(=O)O)=C(S[C@@H]3CN[C@H](C(=O)N(C)C)C3)[C@H](C)[C@H]12 [Meropenem] | > 128 µM | > 128 µM | > 128 µM | 2 to 4 µM (≈ 0.767 to 1.53 µg/mL) | > 128 µM | > 128 µM | > 128 µM | > 128 µM |  |  |  |  |  |  |  |  |  |  |  |  | 
4 | CCN1CCN(C(=O)N[C@@H](C(=O)N[C@@H]2C(=O)N3[C@@H]2SC(C)(C)[C@@H]3C(=O)O)c2ccccc2)C(=O)C1=O [Piperacillin] | 128 µM (≈ 66.2 µg/mL) | > 256 µM | > 256 µM | 4 µM (≈ 2.07 µg/mL) | 256 µM (≈ 132 µg/mL) | 64 µM (≈ 33.1 µg/mL) | 64 to 128 µM | 64 to 128 µM (≈ 33.1 to 66.2 µg/mL) |  |  |  |  |  |  |  |  |  |  |  |  | 
5 | CC[C@H](C)[C@H](NC(=O)[C@H](CCCNC(=N)N)NC(=O)[C@H](Cc1c[nH]c2ccccc12)NC(=O)[C@H](CC(C)C)NC(=O)[C@@H](N)CCCNC(=N)N)C(=O)N[C@H](C(=O)N[C@H](C(=O)N[C@H](C(=O)N[C@@H](CCCNC(=N)N)C(=O)N[C@H](C(=O)N[C@@H](CCCCN)C(=O)N[C@@H](CCCNC(=N)N)C(N)=O)C(C)C)[C@@H](C)CC)C(C)C)C(C)C [Sub 7] (H-RLWRIVVIRVKR-NH2) |  |  |  |  |  |  |  |  | 0.53 | 0.56 | 0.56 | 0.75 | 0.5 | 0.75 | 2 | 0.63 | 0.51 | 0.53 | 1 | 0.5 | FIC, combination with TOB [1]: 2; MIC against MDR isolates of PA, PA253 (MDR P. aeruginosa PA253; MDR PA253, 18 h): 16 µM; MIC against PA01 wt (P. aeruginosa PA01-wt; -wt, 18 h): 16 µM (≈ 25.5 µg/mL); MIC against MDR isolates of PA, PA919 (MDR P. aeruginosa PA 919; MDR PA 919, 18 h): 32 µM; MIC against PA910 in μM (peptides, Table 4) (MDR P. aeruginosa PA 910; as listed in the FIC table): 32 µM
